The target of the assay is T1, Androgen Receptor (Homo sapiens, UniProt P10275).
T1 construct: endogenous in cells; host or cells: VCaP cells
T1 sequence (P10275 1-920): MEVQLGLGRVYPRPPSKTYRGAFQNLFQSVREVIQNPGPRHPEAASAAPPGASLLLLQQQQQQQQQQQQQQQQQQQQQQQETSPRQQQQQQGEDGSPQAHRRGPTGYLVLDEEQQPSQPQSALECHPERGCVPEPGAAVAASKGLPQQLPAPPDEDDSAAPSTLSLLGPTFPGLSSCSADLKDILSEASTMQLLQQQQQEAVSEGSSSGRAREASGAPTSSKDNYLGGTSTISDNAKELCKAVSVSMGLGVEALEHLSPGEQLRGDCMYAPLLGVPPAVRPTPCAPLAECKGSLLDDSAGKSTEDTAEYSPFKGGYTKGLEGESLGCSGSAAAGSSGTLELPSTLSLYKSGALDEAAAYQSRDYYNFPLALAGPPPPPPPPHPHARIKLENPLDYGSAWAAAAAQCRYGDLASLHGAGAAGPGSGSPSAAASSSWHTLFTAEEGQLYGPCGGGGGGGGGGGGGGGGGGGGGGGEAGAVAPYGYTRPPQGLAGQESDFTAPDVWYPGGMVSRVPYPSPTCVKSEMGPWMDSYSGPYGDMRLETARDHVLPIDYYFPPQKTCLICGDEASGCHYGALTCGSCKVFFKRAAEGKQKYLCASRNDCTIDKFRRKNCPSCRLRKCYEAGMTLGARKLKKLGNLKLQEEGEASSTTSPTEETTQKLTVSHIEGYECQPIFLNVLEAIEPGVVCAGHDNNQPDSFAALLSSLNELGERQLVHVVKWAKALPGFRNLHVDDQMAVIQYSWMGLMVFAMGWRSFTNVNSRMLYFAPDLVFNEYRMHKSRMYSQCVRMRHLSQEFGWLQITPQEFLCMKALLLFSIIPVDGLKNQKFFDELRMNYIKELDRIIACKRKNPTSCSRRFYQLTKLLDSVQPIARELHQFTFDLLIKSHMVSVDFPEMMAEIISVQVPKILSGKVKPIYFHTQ
As to the kind of experiment: Androgen Receptor ELISA assay (PathScan AR ELISA) in VCaP cells: AR degradation, Dmax and DC50. Type of assay: cell-based. The method, boiled down:
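After 24 h exposure of VCaP cells (charcoal-stripped serum, 0.1 nM R1881 agonist, 0.1% DMSO) to seven half-log compound concentrations, residual AR in lysates was measured by PathScan ELISA (TMB absorbance, 450 nm). Cells were plated at 30,000/well and grown at least 3 days beforehand.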

Where [1] appears, read: VCaP cells; Table 36; read-out: VCaP DC50.

Read-outs that look alike come from different tables or passages of the source.

As a reminder, the DC50 is the concentration at which degradation of the target reaches its halfway point. The term Dmax denotes the largest share of the target that was removed. With `Cc1ncsc1-c1ccc(CNC(=O)[C@@H]2C[C@@H](O)CN2C(=O)[C@@H](NC(=O)CN2CCN(CCCc3cn(-c4ccc(C(=O)N[C@H]5C(C)(C)[C@H](Oc6ccc(C#N)c(C(F)(F)F)c6)C5(C)C)cc4)nn3)CC2)C(C)(C)C)cc1` [Example 710, (2S,4R)-1-((S)-2-(2-(4-(3-(1-(4-(((1r,3r)-3-(4-cyano-3-(trifluoromethyl)phenoxy)-2,2,4,4-tetramethylcyclobutyl)carbamoyl)phenyl)-1H-1,2,3-triazol-4-yl)propyl)piperazin-1-yl)acetamido)-3,3-dimethylbutanoyl)-4-hydroxy-N-(4-(4-methylthiazol-5-yl)benzyl)pyrrolidine-2-carboxamide], under setting [1], the DC50 is under 50 nM. Under “VCaP, read-out: VCaP Dmax (%)”, the Dmax was 51 to 70%.

Take `Cc1ncsc1-c1ccc(CNC(=O)[C@@H]2C[C@@H](O)CN2C(=O)C(NC(=O)COCCN2CCN(c3ccc(C(=O)N[C@H]4C(C)(C)[C@H](Oc5ccc(C#N)c(C(F)(F)F)c5)C4(C)C)cn3)C(=O)C2)C(C)(C)C)cc1` (stereo partly drawn) [Example 711, N-((1r,3r)-3-(4-cyano-3-(trifluoromethyl)phenoxy)-2,2,4,4-tetramethylcyclobutyl)-6-(4-(2-(2-(((S)-1-((2S,4R)-4-hydroxy-2-((4-(4-methylthiazol-5-yl)benzyl)carbamoyl)pyrrolidin-1-yl)-3,3-dimethyl-1-oxobutan-2-yl)amino)-2-oxoethoxy)ethyl)-2-oxopiperazin-1-yl)nicotinamide]: the “VCaP Dmax (%)” value (VCaP cells; Table 36) is recorded as “+ (Dmax ≤ 25%)”. The DC50 under setting [1] was under 50 nM.

Take `Cc1ncsc1-c1ccc([C@H](NC(=O)[C@@H]2C[C@@H](O)CN2C(=O)[C@@H](NC(=O)CN2CCN(CCCc3ccc(C(=O)N[C@H]4C(C)(C)[C@H](Oc5ccc(C#N)c(C(F)(F)F)c5)C4(C)C)cc3)CC2)C(C)(C)C)C2COC2)cc1` [Example 712, (2S,4R)-1-((S)-2-(2-(4-(3-(4-(((1r,3r)-3-(4-cyano-3-(trifluoromethyl)phenoxy)-2,2,4,4-tetramethylcyclobutyl)carbamoyl)phenyl)propy)piperazin-1-yl)acetamido)-3,3-dimethylbutanoyl)-4-hydroxy-N-((R)-(4-(4-methylthiazol-5-yl)phenyl)(oxetan-3-yl)methyl)pyrrolidine-2-carboxamide]: the DC50 under setting [1] was over 501 nM. Moreover, the maximal degradation (Dmax) (VCaP, read-out: VCaP Dmax (%)) is under 25%.

Take `Cc1ncsc1-c1ccc([C@@H](NC(=O)[C@@H]2C[C@@H](O)CN2C(=O)[C@@H](NC(=O)CN2CCN(CCCc3ccc(C(=O)N[C@H]4C(C)(C)[C@H](Oc5ccc(C#N)c(C(F)(F)F)c5)C4(C)C)cc3)CC2)C(C)(C)C)C2COC2)cc1` [Example 713, (2S,4R)-1-((S)-2-(2-(4-(3-(4-(((1r,3r)-3-(4-cyano-3-(trifluoromethyl)phenoxy)-2,2,4,4-tetramethylcyclobutyl)carbamoyl)phenyl)propyl)piperazin-1-yl)acetamido)-3,3-dimethylbutanoyl)-4-hydroxy-N-((S)-(4-(4-methylthiazol-5-yl)phenyl)(oxetan-3-yl)methyl)pyrrolidine-2-carboxamide]: the DC50 under setting [1] was under 50 nM. Besides, the Dmax (VCaP, read-out: VCaP Dmax (%)) was under 25%.

On to `Cc1ncsc1-c1ccc([C@H](C)NC(=O)[C@@H]2C[C@@H](O)CN2C(=O)[C@@H](NC(=O)CCCN(C)[C@H](C(=O)N[C@H](C(=O)N(C)CCOc2ccc(N3C(=S)N(c4ccc(C#N)c(C(F)(F)F)c4)C(=O)C3(C)C)cc2)C(C)C)C(C)C)C(C)(C)C)cc1` [Example 714, (2S,4R)-1-((5S,8S,15S)-15-(tert-butyl)-1-(4-(3-(4-cyano-3-(trifluoromethyl)phenyl)-5,5-dimethyl-4-oxo-2-thioxoimidazolidin-1-yl)phenoxy)-5,8-diisopropyl-3,9-dimethyl-4,7,13-trioxo-3,6,9,14-tetraazahexadecan-16-oyl)-4-hydroxy-N-((S)-1-(4-(4-methylthiazol-5-yl)phenyl)ethyl)pyrrolidine-2-carboxamide], for which the maximal degradation (Dmax) (VCaP, read-out: VCaP Dmax (%)) was under 25%. For the same compound, the DC50 (read-out: VCaP DC50; VCaP cells; Table 36) was over 501 nM.

Source of the values: US11427548B2 (Arvinas Operations, Inc., priority 2015, dated 2022).
